Tests used:
[1] = molecular target: T1, human α1D‐adrenoceptor (full length) (Homo sapiens, UniProt P25100); experiment: ^3H‐cAMP accumulation in the presence of 10 μM forskolin, CHO‐α1D cells; type: cell-based; conditions: CHO‐α1D cells; in presence of forskolin; log values given negative
T1 construct: human α1D‐adrenoceptor (full length) were used; expressed in transfected cells; host or cells: CHO-K1
T1 sequence (P25100 1-572): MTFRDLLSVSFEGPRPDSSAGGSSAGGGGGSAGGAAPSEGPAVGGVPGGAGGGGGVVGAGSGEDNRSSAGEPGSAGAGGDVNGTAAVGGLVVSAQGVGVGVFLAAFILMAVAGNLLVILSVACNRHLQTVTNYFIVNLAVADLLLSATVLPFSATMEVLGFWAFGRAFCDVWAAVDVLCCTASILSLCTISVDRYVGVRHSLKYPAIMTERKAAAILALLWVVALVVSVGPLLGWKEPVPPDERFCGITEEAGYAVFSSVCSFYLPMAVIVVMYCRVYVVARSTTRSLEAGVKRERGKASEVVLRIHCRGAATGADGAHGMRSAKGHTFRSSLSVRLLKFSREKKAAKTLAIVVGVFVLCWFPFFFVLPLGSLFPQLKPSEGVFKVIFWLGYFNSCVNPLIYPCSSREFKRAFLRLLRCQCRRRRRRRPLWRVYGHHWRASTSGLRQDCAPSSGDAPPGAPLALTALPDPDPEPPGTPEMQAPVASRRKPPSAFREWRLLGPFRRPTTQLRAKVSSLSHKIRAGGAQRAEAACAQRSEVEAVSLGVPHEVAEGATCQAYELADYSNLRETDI

[2] = test system: parental CHO cell line without any transfected receptors; experiment: ERK1/2‐phosphorylation, parent CHO cells without transfected receptors; type: cell-based, Chinese hamster; conditions: CHO cells without transfected receptors; maximal response as % of PDBu (10μM) response; mean ± s.e.m.
[3] = molecular target: T2, human α1B‐adrenoceptor (Homo sapiens, UniProt P35368); experiment: Intracellular free calcium mobilization, CHO‐α1B cells; type: cell-based; conditions: CHO‐α1B cells
T2 construct: expressed in transfected cells; host or cells: CHO-K1
T2 sequence (P35368 1-520): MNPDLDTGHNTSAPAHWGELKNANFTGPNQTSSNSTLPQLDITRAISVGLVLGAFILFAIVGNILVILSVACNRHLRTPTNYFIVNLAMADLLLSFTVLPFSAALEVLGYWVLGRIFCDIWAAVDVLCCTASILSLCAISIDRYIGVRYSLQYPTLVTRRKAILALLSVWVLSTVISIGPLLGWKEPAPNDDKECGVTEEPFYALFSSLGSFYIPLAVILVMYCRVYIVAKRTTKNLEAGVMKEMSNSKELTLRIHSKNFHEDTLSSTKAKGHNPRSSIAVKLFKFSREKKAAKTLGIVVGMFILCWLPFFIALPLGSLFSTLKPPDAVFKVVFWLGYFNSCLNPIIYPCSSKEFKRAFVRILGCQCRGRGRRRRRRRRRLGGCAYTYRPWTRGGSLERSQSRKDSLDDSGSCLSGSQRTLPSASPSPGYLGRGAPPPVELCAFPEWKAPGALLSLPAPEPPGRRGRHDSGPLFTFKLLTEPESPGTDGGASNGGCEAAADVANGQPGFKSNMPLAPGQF

[4] = molecular target: T2, human α1B‐adrenoceptor; experiment: ^3H‐cAMP accumulation, CHO‐α1B cells; type: cell-based; conditions: CHO‐α1B cells
[5] = molecular target: T2, human α1B‐adrenoceptor; experiment: ^3H‐cAMP accumulation in the presence of 10 μM forskolin, CHO‐α1B cells; type: cell-based; conditions: CHO‐α1B cells; in presence of forskolin
[6] = molecular target: T2, human α1B‐adrenoceptor; experiment: ^3H‐prazosin whole‐cell radioligand binding, CHO‐α1B cells; conditions: CHO‐α1B cells
[7] = test system: parental CHO cell line without any transfected receptors; experiment: Forskolin‐stimulated cAMP accumulation, parent CHO cells without transfected receptors; type: cell-based, Chinese hamster; conditions: CHO cells without transfected receptors; in presence of forskolin
[8] = molecular target: T3, human α1A‐adrenoceptor (Homo sapiens, UniProt P35348); experiment: ^3H‐cAMP accumulation, CHO‐α1A cells; type: cell-based; conditions: CHO‐α1A cells; % of 10 µM forskolin response
T3 construct: expressed in transfected cells; host or cells: CHO-K1
T3 sequence (P35348 1-466): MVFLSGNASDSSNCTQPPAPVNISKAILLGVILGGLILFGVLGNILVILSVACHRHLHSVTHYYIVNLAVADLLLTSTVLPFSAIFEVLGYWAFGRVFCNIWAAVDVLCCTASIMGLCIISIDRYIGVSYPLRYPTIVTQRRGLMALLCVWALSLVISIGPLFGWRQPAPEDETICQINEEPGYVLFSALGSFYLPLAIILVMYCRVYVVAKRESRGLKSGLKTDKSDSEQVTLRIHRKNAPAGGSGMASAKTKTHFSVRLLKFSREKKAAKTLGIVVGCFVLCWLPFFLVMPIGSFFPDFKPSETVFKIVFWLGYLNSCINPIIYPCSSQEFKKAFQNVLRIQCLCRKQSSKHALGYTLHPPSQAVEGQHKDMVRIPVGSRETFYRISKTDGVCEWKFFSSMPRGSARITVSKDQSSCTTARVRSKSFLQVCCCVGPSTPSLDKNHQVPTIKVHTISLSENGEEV

[9] = molecular target: T1, human α1D‐adrenoceptor (full length); experiment: ^3H‐prazosin whole‐cell radioligand binding, CHO‐α1D cells; conditions: CHO‐α1D cells
[10] = molecular target: T1, human α1D‐adrenoceptor (full length); experiment: ^3H‐cAMP accumulation, CHO‐α1D cells; type: cell-based; conditions: cAMP accumulation without forskolin
[11] = molecular target: T3, human α1A‐adrenoceptor; experiment: ERK1/2‐phosphorylation (Surefire Alphascreen), CHO‐α1A cells; type: cell-based; conditions: CHO‐α1A cells; % of 10 µM PDBu; ^a bi‐phasic: initial stimulatory part
[12] = molecular target: T1, human α1D‐adrenoceptor (full length); experiment: Intracellular free calcium mobilization, CHO‐α1D cells; type: cell-based; conditions: CHO‐α1D cells
[13] = molecular target: T2, human α1B‐adrenoceptor; experiment: ERK1/2‐phosphorylation (Surefire Alphascreen), CHO‐α1B cells; type: cell-based; conditions: CHO‐α1B cells; maximal response as % PDBu response; for bi‐phasic responses the initial stimulatory part
[14] = molecular target: T3, human α1A‐adrenoceptor; experiment: Intracellular free calcium mobilization, CHO‐α1A cells; type: cell-based; conditions: CHO‐α1A cells; maximal response as % of 10 µM ionomycin
[15] = molecular target: T1, human α1D‐adrenoceptor (full length); experiment: ERK1/2‐phosphorylation (Surefire Alphascreen), CHO‐α1D cells; type: cell-based; conditions: CHO‐α1D cells; response at 100 µM ligand (no EC50 given)

CS(=O)(=O)Nc1c(O)ccc2c1CCCC2C1=NCCN1 (centres unmarked) [A61603]
cAMP (in presence of forskolin) Log EC50 [1]: No response
ERK1/2-phosphorylation % PDBu [2]: No response
Intracellular calcium release Log EC50 ([3]; given as log EC50 (negative numbers)): −6.52 ± 0.08
Intracellular calcium release % ionomycin ([3]; maximal response as % of 10 µM ionomycin response): 35.7 ± 3.7%
cAMP accumulation Log EC50 [4]: −5.63 ± 0.18
cAMP accumulation % forskolin ([4]; % forskolin maximum response): 5.3 ± 0.5%
cAMP accumulation (in presence of forskolin) Log EC50 [5]: −6.16 ± 0.09
IC50 (log), ^3H‐prazosin binding ([6]; log IC50 bound given where no KD could be determined): IC50 > −4
Log IC50 α1B, ^3H‐prazosin whole cell binding ([6]; printed as IC50> log value): IC50 >−4
cAMP accumulation (in presence of forskolin) Log EC50 [7]: No response
cAMP accumulation % forskolin [8]: 142.7 ± 8.7%
3H‐prazosin binding Log KD ([9]; whole‐cell binding (from Table 1), log values given negative): −3.92
Log KD α1D, ^3H‐prazosin whole cell binding ([9]; given as log KD (negative), mean ± SEM, 'early plateau' = specific binding not fully inhibited): −3.92 ± 0.11
cAMP Log EC50 [10]: No response
ERK1/2‐phosphorylation % PDBu [11]: 74.8 ± 4.5%
Intracellular calcium release Log EC50 ([12]; log values given negative): −5.29 ± 0.12
Intracellular calcium release % ionomycin ([12]; maximal response as % of 10 µM ionomycin): 12.0 ± 3.6%
ERK1/2‐phosphorylation % PDBu [13]: 54.5 ± 7.9%
Intracellular calcium release % ionomycin [14]: 61.0 ± 3.8%
ERK1/2‐phosphorylation % PDBu at 100 µM [15]: 11.7 ± 2.9%

From article PMC8343220, “The selectivity of α‐adrenoceptor agonists for the human α1A, α1B, and α1D‐adrenoceptors” (Pharmacology Research & Perspectives, 2021)
